Laboratory results as given in US7452865B2, “Antagonistic analogs of GH RH (2003)” (The Administrare's of the Tulane Educational Fund, priority 2004, dated 2008).
Marks after values point to notes of the source that are not given here. Square brackets hold non-standard residues; d marks the D form. Peptide text beside a SMILES is read from it. * marks the point of attachment. Phe(4-amidino) = N=C(N)c1ccc(C[C@H](N)C(=O)O)cc1; Phe(4-Cl) = N[C@@H](Cc1ccc(Cl)cc1)C(=O)O; hArg = N=C(N)NCCCC[C@H](N)C(=O)O; Nle = CCCC[C@H](N)C(=O)O; Abu = CC[C@H](N)C(=O)O; PhAc = O=C(Cc1ccccc1)*

What was measured:
IGF-I [1] = assay: DMS-153 human SCLC xenografts: serum IGF-I; type: in vivo, nude mice; conditions: 10 μg/day s.c., 6 weeks
Source text: (§1) For the measurement of GH and IGF-I levels in the serum, as well as IGF-I and IGF-II concentrations in the cytosol fraction of tumors, blood samples and tumor samples were collected and processed as described (Braczkowski R, Schally A V, Plonowski A, Varga J L, Groot K, Krupa M, Armatis P, Cancer 95: 1735-1745, 2002), hereby incorporated by reference. Briefly, blood samples are centrifuged to separate the serum, tumors are homogenized and centrifuged to separate the cytosol fraction. Serum GH is then measured by the double-antibody RIA method. Before measurement by RIA, IGF-I and IGF-II are extracted from serum and cytosol fractions using an acid-ethanol cryoprecipitation method that eliminates most of the IGF binding proteins, which can interfere with the RIA. IGF-I concentration is measured by RIA using IGF-I as a standard and goat anti-IGF-I antibody (both from DSL Inc., Webster, Tex.). IGF-II concentration is measured by RIA using human recombinant IGF-II (Bachem) as a standard and anti-IGF-II monoclonal antibody (Amano International Enzyme, Troy, Va.).
(§2) Male nude mice were implanted s.c. with 3 mm^3 pieces of DMS-153 human SCLC tissue. When tumors reached a volume of approx. 100 mm^3 the mice were divided into 3 experimental groups of 68 animals each and received the following treatment for 6 weeks group 1 (control), vehicle solution; group 2, Peptide 67 (10 μg/day s.c.); group 3, Peptide 31 (10 μg/day s.c.). Tumor volumes were recorded twice a week. At the end of treatment, mice were anesthetized with isoflurane, killed by decapitation, trunk blood was collected for measurement of serum IGF-I, and tumors were excised and weighed. Data are presented as means±S.E. Data were evaluated by one way ANOVA and the Student-Newman-Keuls test.

[2] = test system: GH-RH receptor isoforms on membrane fractions of human PC-3 prostate tumors; type: binding; conditions: general statement
Procedure, shortened: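 Competitive displacement of [^125I]JV-1-42 from crude membranes of human PC-3 prostate tumours grown as nude-mouse xenografts, with unlabelled peptides at 10^−12 to 10^−6 M. Bound radioactivity in the centrifuged pellet gamma-counted; Ki from Munson–Rodbard analysis. Relative affinity = Ki of reference peptide (JV-1-36 or JV-1-38) / Ki of test antagonist.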

IGF-I [3] = assay: PC-3 xenografts, Experiment 1: serum IGF-I (RIA); type: in vivo, nude mice; conditions: 10 μg/day s.c., 28 days
Source text: as §1
Male nude mice were implanted s.c. with 3 mm^3 pieces of PC-3 human hormone-independent prostate cancer tissue on both flanks. When tumors reached a volume of approx. 50 mm^3, the mice were divided into 5 experimental groups with 7 to 8 animals in each group and received single daily injections for 28 days as follows: 1. Control (vehicle solution); 2. JV-1-38 (10 μg/day s.c.); 3 Peptide 31 (10 μg/day s.c.); 4. Peptide 67 (10 μg/day s.c.); 5. Peptide 62 (10 μg/day s.c.). Tumor volumes were measured twice a week. The experiment was ended on day 29 by sacrificing the mice under Isoflurane anesthesia. Resulting tumors were cleaned, weighed, and snap-frozen until further analyses. Trunk blood was collected from the abdominal aorta and serum was separated for RIA measurement of IGF-I. Statistical analyses of the measurement results were done by two-tailed t-test; data are presented as the means±S.E.

[4] = test system: HT-29 human colon cancer xenografts; assay: HT-29 human colon cancer xenografts in nude mice: tumor growth; type: in vivo; conditions: 10 μg/day s.c., 62 days
Protocol: HT-29 human colon cancers were transplanted sc. into male nude mice. 19 days after transplantation, the mice were divided into two groups of 10 animals each. and the treatment was started. Mice in the treatment group received single daily injections of Peptide 67 sc. at a dose of 10 μg/day for 62 days, while the control group was injected with the vehicle solvent. Tumors were measured regularly, and tumor volume was calculated. The mice were sacrificed at the end of experiment and tumor weights were measured.

[5] = test system: hGH-RH(1-29)NH2 induced GH release; assay: Inhibition of GH release in superfused rat pituitary system; type: cell-based
Procedure, shortened: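 Dispersed rat pituitary cells in superfusion were preincubated 9 min with analog at various concentrations, then stimulated with 1 nM hGH-RH(1-29)NH2 for 3 min, repeated at 30, 60, 90, 120 min to gauge duration. GH measured by double-antibody RIA; net integrated responses expressed as percent of the initial 1 nM GH-RH response.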

mRNA for IGF-II = assay: DMS-153 human SCLC xenografts: expression of mRNA for IGF-II; type: in vivo, nude mice; conditions: 10 μg/day s.c., 6 weeks, control group 100±1.5%
Protocol: as §2

## CCCC[C@H](NC(=O)[C@@H](NC(=O)[C@H](CC(=O)O)NC(=O)[C@H](CCC(N)=O)NC(=O)[C@H](CC(C)C)NC(=O)[C@H](CC(C)C)NC(=O)[C@H](CCCCN)NC(=O)[C@H](CCCNC(=N)N)NC(=O)[C@H](C)NC(=O)[C@H](CO)NC(=O)[C@H](CC(C)C)NC(=O)[C@H](CCC(N)=O)NC(=O)[C@H](CC)NC(=O)[C@H](CC(C)C)NC(=O)[C@@H](NC(=O)[C@H](CCCCN)NC(=O)[C@H](CCCNC(=N)N)NC(=O)[C@H](Cc1ccc(OC)cc1)NC(=O)[C@H](Cc1ccc(C(=N)N)cc1)NC(=O)[C@H](CC(N)=O)NC(=O)[C@@H](NC(=O)[C@H](Cc1ccc(Cl)cc1)NC(=O)[C@@H](NC(=O)[C@H](C)NC(=O)[C@H](CC(=O)O)NC(=O)[C@@H](CCCNC(=N)N)NC(=O)[C@H](Cc1ccc(O)cc1)NC(=O)Cc1ccccc1)[C@@H](C)CC)[C@@H](C)O)C(C)C)[C@@H](C)CC)C(=O)N[C@H](CCCNC(=N)N)C(=O)N[C@@H](CCCCNC(=N)N)C(N)=O [Peptide 67, [PhAc-Tyr^1, D-Arg^2, Phe(pCl)^6, Amp^9, Tyr(Me)^10, Abu^15, Nle^27, D-Arg^28, Har^29]hGH-RH(1-29)NH2] (PhAc-Y[dR]DAI[Phe(4-Cl)]TN[Phe(4-amidino)]Y(Me)RKVL[Abu]QLSARKLLQDI[Nle][dR][hArg]-NH2)
IGF-I [1]
  Serum IGF-I: 117.9 ± 17.2 ng/mL
IGF-I [1]; vs control
  Serum IGF-I (% inhibition): (30%)
[2]
  binding affinities to the tumoral receptors for GH-RH (in words): extremely high binding affinities
IGF-I [3]
  Serum IGF-I: 128 ± 10.6 ng/mL
IGF-I [3]; vs control
  Serum IGF-I (% inhibition): (14%)
[4]
  Final tumor volume (mm^3): 1218 ± 320* mm^3
  Tumor weight: 1434 ± 405 mg
[4]; vs control group
  inhibition in the volumes of HT-29 tumors: 56.3%
  inhibition in the weights of HT-29 tumors: 53.9%
[5]; antagonist 30 nM, 1 nM hGH-RH(1-29)NH2 at 0 min
  GH response (% of control) 0 min: 28 % of control
[5]; antagonist 30 nM, 1 nM hGH-RH(1-29)NH2 at 30 min
  GH response (% of control) 30 min: 15 % of control
[5]; antagonist 30 nM, 1 nM hGH-RH(1-29)NH2 at 60 min
  GH response (% of control) 60 min: 18 % of control
[5]; antagonist 30 nM, 1 nM hGH-RH(1-29)NH2 at 90 min
  GH response (% of control) 90 min: 20 % of control
[5]; antagonist 30 nM, 1 nM hGH-RH(1-29)NH2 at 120 min
  GH response (% of control) 120 min: 23 % of control
[5]; general statement, in vitro and in vivo
  endocrine antagonistic potency: inhibition of the GH release stimulated by hGH-RH(1-29)NH2 (in words): high endocrine antagonistic potencies
mRNA for IGF-II
  level of expression of mRNA for IGF-II: 78.0±44.3%
